Measurements: patent US8729279B2, “Agent for promoting osteoblast differentiation, pharmaceutical composition for promoting bone formation, and food for special dietary use containing auraptene analog as active ingredient” (Erina Co., Inc., priority 2010, dated 2014)

How the values were obtained:
[1] = system: MC3T3-E1 cells; experiment: Cell number (MTT) in initial osteoblast differentiation culture; format: cell-based, mouse; conditions: compound 1-100 μM, 6 days, FIG. 2 open bars
Protocol: (§1) MC3T3-E1 cells which are mouse pre-osteoblastic cells were suspended in α-MEM and plated on each well of a 96-well microplate at a concentration of 5×10^3 cells/well. After 2-day pre-incubation in 10% FBS-containing α-MEM under a condition of 37° C. and 5% CO2, the culture medium was replaced with 10% FBS-containing α-MEM containing a compound at a concentration of 1, 3, 10, 30 or 100 μM and the cells were cultured for 6 days. During the incubation, the culture medium was replaced once in every 3 days. The cells cultured in the same manner using the medium without coumarin compounds were used as a control.
At the end of incubation, the cell number was measured by the same method as above using a MTT reagent and the value was calculated by taking the control as 100.

[2] = system: MC3T3-E1 cells; experiment: Comparison with BMP-2 and effect of BMP signal inhibitors on ALP activity; format: cell-based, mouse; conditions: 6 days
Protocol: (§2) In addition, the activity of alkaline phosphatase (ALP), a marker enzyme of initial osteoblast differentiation, was measured by the following method. After incubation, the cells were fixed with cold methanol, and the dishes were dried. 100 μl of buffer of pH 8.5 containing 2 mM magnesium chloride and 100 mM Tris-HCl, with 6.7 mM p-nitrophenylphosphate as a substrate, was dispensed in each well and allowed to react at 37° C. for 30 minutes. Then, 100 μl of 0.1 N sodium hydroxide was added to terminate the reaction, followed by measurement with a plate reader of the absorbance at 405 nm, which was determined to be the ALP activity. The value was calculated by taking the control as 100.
Upon the addition of the sample, the cells were cultured for 6 days in the presence or absence of 10 ng/ml Noggin, a BMP inhibitor, or 1 μM Dorsomorphin, an inhibitor of type I BMP receptor (ALK) (the above concentrations are the final concentrations), and the ALP activities were measured in the same manner as above.

[3] = system: Postmenopausal osteoporosis model mice; experiment: Bone formation-promoting effect in vivo, ovariectomized mice, femur pQCT; set-up: species or system mouse; conditions: OVX mice, 50 mg/kg/day oral, 30+30 days, versus OVX-Con
Protocol: Postmenopausal osteoporosis model mice were prepared by ovariectomy and test compounds were administrated to the mice with decreased bone mass, to examine the effects on bone formation in vivo level.
Slc; ddY mice (4 week-old, female) were purchased from Chubu Kagaku Shizai Co., Ltd. After 2 days, ovariectomy (“OVX”) or sham operation (“Sham”) was performed under Nembutal anesthesia. After the mice were bred for 1 month in order to decrease bone mass due to the progression in bone resorption, a part of mice in each group (OVX: N=5, Sham: N=3) were killed to collect the femurs. The rest of mice in the ovariectomy (“OVX”) group were divided into two groups: solvent administration group (“OVX-Con”: N=6) and auraptene administration group (50 mg/kg/day, oral administration, “OVX-AUR”: N=6) and bred for another month together with the sham operation group (Sham-Con: N=6). Thereafter, the mice were killed to collect the femurs.
The bone mineral content density and the like of the collected femurs were measured by means of pQCT (peripheral Quantitative Computed Tomography) using a bone density measuring apparatus (trade name “XCT Research SA+”, manufactured by Stratec Medizintechnik GmbH).

[4] = system: MC3T3-E1 cells; experiment: Expression of genes related to osteoblast differentiation, real-time RT-PCR; format: cell-based, mouse; conditions: compared with control
Protocol: The effects on the expression of various genes related to osteoblast differentiation were analyzed using the real-time RT-PCR method.
MC3T3-E1 cells were plated in each well of a 6-well plate (Greiner) at a concentration of 1.5×10^5 cells/well and cultured in the same manner as above. […] After incubation, the culture medium was removed and the cells were washed with PBS. Thereafter, “ISOGEN” (trade name, Wako Pure Chemical Industries, Ltd.) was added in an amount of 1 ml/well and the cells were collected. RNA purification was conducted according to the protocol described in the package insert of “ISOGEN”.
Reverse transcription was performed using “PrimeScript RT-PCR Kit” (trade name, TaKaRa) with 2 μg of purified RNA according to the protocol described in the package insert, thereby synthesizing the cDNA sample.
Real-time PCR was performed using “FastStart Universal SYBR Green Master (Rox)” (trade name, Roche) according to the protocol described in the package insert under the following conditions: incubation at 50° C. for 2 min and at 95° C. for 10 min, followed by 50 cycles of 15 sec at 95° C. and 1 min at 60° C. Data were analyzed with “ABI PRISM 7300 sequence detection system” (trade name, Applied Biosystems).
Primers used were as described in the following Table 2.
Data analysis was performed as follows using β-actin as an endogenous control gene by the comparative Ct method.
Δ Ct=(Ct of target gene)−(Ct of endogenous control gene)
ΔΔ Ct=(Δ Ct of target sample)−(Δ Ct of reference sample)
Relative expression level of target gene of target sample to that of reference sample=2 (^−ΔΔ^Ct)

[5] = system: MC3T3-E1 cells; experiment: Effect on osteoblast proliferation (MTT); format: cell-based, mouse; conditions: compound 1, 3, 10 or 30 μM, 3 days, FIG. 1
Protocol: The effect on osteoblast proliferation was determined by the following method.
MC3T3-E1 cells were suspended in α-MEM and plated on each well of a 96-well microplate at a concentration of 2×10^3 cells/well. After overnight incubation in 10% fetal bovine serum (FBS)-containing α-MEM under a condition of 37° C. and 5% CO2, the culture medium was replaced with 10% FBS-containing α-MEM containing a compound at a concentration of 1, 3, 10 or 30 μM and cultured for 3 days. The cells cultured in the same manner using the medium containing the same amount of solvent only were used as a control.
Added was 3-(4,5-Dimethylthiazol-2-yl)-2,5-diphenyltetrazolium bromide (MTT) (5 mg/ml in PBS) in one-tenth amount of the culture medium 2 hours before the completion of incubation. After 2-hour cultivation, the medium was removed, formazan formed by viable cells was dissolved in DMSO and the absorbance at 570 nm (reference wavelength of 630 nm) was measured with a plate reader. The relative cell numbers were determined by calculating the values taking the control as 100 (average plus or minus standard deviation of 4 wells or more; the same hereinafter).

[6] = system: MC3T3-E1 cells; experiment: Osteoblast calcification, alizarin red S staining; format: cell-based, mouse; conditions: compared with control
Protocol: 3. Effects on Osteoblast Calcification MC3T3-E1 cells were suspended in α-MEM and plated in each well of a 96-well microplate at a concentration of 5×10^3 cells/well and pre-incubated for 2 days in 10% FBS-containing α-MEM under a condition of 37° C. and 5% CO2. Thereafter, the culture medium was replaced with 10% FBS-containing α-MEM containing a compound at a concentration of 1, 3, 10 or 30 μM, 50 μg/ml ascorbic acid and 10 mM β-glycerophosphoric acid, and the cells were cultured for 10 days. During the incubation, the culture medium was changed once in every 3 or 4 days.
After incubation, the cells were fixed with 70% ethanol, the dishes were dried, and calcium deposits were stained with a 1% alizarin red S solution. The image of the stained plate was obtained using a scanner. In addition, the degree of stain (degree of calcification) was evaluated by naked eyes.

[7] = system: RAW264 cells; experiment: Osteoclast differentiation, TRAP activity; format: cell-based, mouse; conditions: RANKL 50 ng/ml, 3 days; FIG. 7 solid bars
Protocol: RAW264 cells (mouse monocyte/macrophage cell line, cell No. RCB0535) were purchased from RIKEN Cell Bank. The osteoclast differentiation-inducing factor (RANKL) was obtained from Wako Pure Chemical Industries, Ltd. Others used were the same as above.
(§3) RAW264 cells were suspended in α-MEM and plated in a 96-well microplate at a concentration of 3×10^3 cells/well. The compounds of the present invention at each concentration and the osteoclast differentiation-inducing factor (RANKL) were added at 50 ng/ml and the cells were cultured for 3 days in an incubator at 37° C. and 5% CO2. After incubation, the cells were fixed with a 10% formalin solution and refixed with 100% ethanol.
After the dishes were dried, as an index of differentiation, the activity of tartrate-resistant acid phosphatase (TRAP), a marker enzyme of osteoclasts, was measured by the following method.
For measurement of the TRAP activity, a buffer containing 10 mM tartrate and 50 mM citrate of pH 4.6, with 3.7 mM p-nitrophenylphosphate as a substrate, was used. […] Thereafter, 100 μl of 0.1 N sodium hydroxide was added to terminate the reaction, followed by measurement of the absorbance at 405 nm with a plate reader. Each absorbance was determined to be the TRAP activity, and the value calculated by taking control as 100 was shown.

[8] = system: MC3T3-E1 cells; experiment: Initial osteoblast differentiation, alkaline phosphatase (ALP) activity; format: cell-based, mouse; conditions: compound 1-100 μM, 6 days; FIG. 2 solid bars
Protocol: as §1, §2

[9] = system: RAW264 cells; experiment: Cell number (MTT) in osteoclast differentiation culture; format: cell-based, mouse; conditions: RANKL 50 ng/ml, 3 days, FIG. 7 open bars
Protocol: as §3
In addition, after similarly cultured, the cells were counted by a conventional method using a MTT reagent, and the value calculated by taking the control as 100 was shown.

SMILES: CC(C)=CCC/C(C)=C/COc1ccc2ccc(=O)oc2c1 [auraptene, 2H-1-benzopyran-2-one, 7-[[(2E)-3,7-dimethyl-2,6-octadiene-1-yl]oxy]-]
- cell viability of MC3T3-E1 cells (control as 100) [1]: little influence on cell viability
- effect of promoting ALP activity in presence of Dorsomorphin ([2]; Dorsomorphin 1 μM, auraptene 30 μM or BMP-2 25 ng/ml): diminished
- effect of promoting ALP activity in presence of Noggin ([2]; Noggin 10 ng/ml, auraptene 30 μM or BMP-2 25 ng/ml): diminished
- effect of promoting ALP activity ([2]; auraptene 30 μM versus BMP-2 25 ng/ml, FIG. 4): equivalent to or more than that with BMP-2 (25 ng/ml)
- trabecular bone mineral density ([3]; FIG. 6A): tended to be high
- total bone mineral density ([3]; FIG. 6B): tended to be high
- cortical bone periosteal circumference ([3]; FIG. 6C): tended to be long
- cortical bone endosteal circumference ([3]; FIG. 6D): tended to be long
- expression of ALP gene ([4]; auraptene 30 μM or BMP-2 50 ng/ml, FIG. 5A): increased
- expression of osteocalcin gene ([4]; auraptene 30 μM or BMP-2 50 ng/ml, FIG. 5B): increased
- expression of Runx 2 gene ([4]; auraptene 30 μM or BMP-2 50 ng/ml, FIG. 5C): increased
- expression of Osterix gene ([4]; auraptene 30 μM or BMP-2 50 ng/ml, FIG. 5D): increased
- expression of BMP-2 gene ([4]; auraptene 30 μM, FIG. 5E): increased
- expression of BMP-4 gene ([4]; auraptene 30 μM, FIG. 5F): increased
- cell number of MC3T3-E1 cells (relative, control as 100) [5]: little change in cell number
- calcified portions stained red [6]: remarkably increased compared with control
- TRAP activity as an index of osteoclast differentiation [7]: do not affect osteoclast differentiation
- ALP activity (control as 100) [8]: increased in a concentration-dependent manner
- cell number of RAW264 cells (control as 100) [9]: did not show a significant influence
